In patent US9169254B2, “Spiroimidazolone derivative” (Chugai Seiyaku Kabushiki Kaisha, priority 2009, dated 2015):

Molecular target: T1, human PTH1 receptor (Homo sapiens, UniProt Q03431)
T1 sequence (Q03431 27-593): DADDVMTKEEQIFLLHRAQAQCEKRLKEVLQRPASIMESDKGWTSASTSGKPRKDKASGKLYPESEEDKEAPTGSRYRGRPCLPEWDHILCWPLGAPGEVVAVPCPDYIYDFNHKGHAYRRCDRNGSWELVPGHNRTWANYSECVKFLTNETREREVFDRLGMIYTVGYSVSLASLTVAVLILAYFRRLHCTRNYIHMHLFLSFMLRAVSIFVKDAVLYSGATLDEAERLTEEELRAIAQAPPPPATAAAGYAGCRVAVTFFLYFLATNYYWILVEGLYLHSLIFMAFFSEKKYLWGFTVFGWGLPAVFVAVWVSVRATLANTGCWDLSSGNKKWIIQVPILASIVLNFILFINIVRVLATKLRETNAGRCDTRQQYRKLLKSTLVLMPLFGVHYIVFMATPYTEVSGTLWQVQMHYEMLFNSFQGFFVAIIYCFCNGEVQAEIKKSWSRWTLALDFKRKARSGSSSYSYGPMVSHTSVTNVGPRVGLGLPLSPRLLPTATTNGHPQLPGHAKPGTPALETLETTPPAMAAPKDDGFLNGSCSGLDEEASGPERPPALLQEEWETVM
Assay: In vitro cAMP signal activity in HKRK-B7 cells (LLC-PK1 cells overexpressing the human PTH1 receptor)
Type: cell-based
Conditions: HKRK-B7 cells; compound at 1×10^−3 M; cAMP produced as percentage of that produced by hPTH(1-34) at 100 nM

cAMP production activity (%)	Structure (SMILES)
4.4%	O=C1NC(C2(c3ccccc3)CCCCC2)=NC12CCN(S(=O)(=O)c1cccc(Cl)c1)CC2 [Compound 33, 8-(3-chloro-benzenesulfonyl)-2-(1-phenyl-cyclohexyl)-1,3,8-triaza-spiro[4.5]dec-1-en-4-one]
16%	O=C1NC(CCc2cccc3ccccc23)=NC12CCN(S(=O)(=O)c1cccc(Cl)c1)CC2 [Compound 34, 8-(3-chloro-benzenesulfonyl)-2-(2-naphthalen-1-yl-ethyl)-1,3,8-triaza-spiro[4.5]dec-1-en-4-one]
56%	O=C1NC(c2cccc(C(F)(F)F)c2)=NC12CCN(S(=O)(=O)CCc1cccc3ccccc13)CC2 [Compound 35, 8-(2-Naphthalen-1-yl-ethanesulfonyl)-2-(3-trifluoromethyl-phenyl)-1,3,8-triaza-spiro[4.5]dec-1-en-4-one]
3.5%	CC(C)(C)C1=NC2(CCN(S(=O)(=O)CCc3cccc4ccccc34)CC2)C(=O)N1 [Compound 36, 2-tert-butyl-8-(2-naphthalen-1-yl-ethanesulfonyl)-1,3,8-triaza-spiro[4.5]dec-1-en-4-one]
54%	O=C1NC(C2CCC(C(F)(F)F)CC2)=NC12CCN(S(=O)(=O)CCc1cccc3ccccc13)CC2 (stereo not shown) [Compound 37, 8-(2-naphthalen-1-yl-ethanesulfonyl)-2-(4-trifluoromethyl-cyclohexyl)-1,3,8-triaza-spiro[4.5]dec-1-en-4-one]
52%	CC(C)(C)OC(=O)N1CCCC(C2=NC3(CCN(S(=O)(=O)CCc4cccc5ccccc45)CC3)C(=O)N2)C1 (stereo not shown) [Compound 38, 3-[8-(2-Naphthalen-1-yl-ethanesulfonyl)-4-oxo-1,3,8-triaza-spiro[4.5]dec-1-en-2-yl]-piperidine-1-carboxylic acid tert-butyl ester]
25%	O=C1NC(C2CCCN(S(=O)(=O)CCc3cccc4ccccc34)C2)=NC12CCN(S(=O)(=O)CCc1cccc3ccccc13)CC2 (stereo not shown) [Compound 39, 8-(2-Naphthalen-1-yl-ethanesulfonyl)-2-[1-(2-naphthalen-1-yl-ethanesulfonyl)-piperidin-3-yl]-1,3,8-triaza-spiro[4.5]dec-1-en-4-one]
19%	CCCS(=O)(=O)N1CCCC(C2=NC3(CCN(S(=O)(=O)c4cccc(Cl)c4)CC3)C(=O)N2)C1 (stereo not shown) [Compound 40, 8-(3-chloro-benzenesulfonyl)-2-[1-(propane-1-sulfonyl)-piperidin-3-yl]-1,3,8-triaza-spiro[4.5]dec-1-en-4-one]
21%	O=C1NC(C2CCCN(S(=O)(=O)c3ccccc3)C2)=NC12CCN(S(=O)(=O)c1cccc(Cl)c1)CC2 (stereo not shown) [Compound 41, 2-(1-benzenesulfonyl-piperidin-3-yl)-8-(3-chloro-benzenesulfonyl)-1,3,8-triaza-spiro[4.5]dec-1-en-4-one]
27%	O=C1NC(C2CCCN(S(=O)(=O)Cc3ccccc3)C2)=NC12CCN(S(=O)(=O)c1cccc(Cl)c1)CC2 (stereo not shown) [Compound 42, 8-(3-chloro-benzenesulfonyl)-2-(1-phenylmethanesulfonyl-piperidin-3-yl)-1,3,8-triaza-spiro[4.5]dec-1-en-4-one]
39%	O=C1NC(C2CCCN(S(=O)(=O)Cc3ccccc3)C2)=NC12CCN(S(=O)(=O)CCc1cccc3ccccc13)CC2 (stereo not shown) [Compound 43, 8-(2-naphthalen-1-yl-ethanesulfonyl)-2-(1-phenylmethanesulfonyl-piperidin-3-yl)-1,3,8-triaza-spiro[4.5]dec-1-en-4-one]
25%	O=C1NC(c2ccc(Cl)cc2Cl)=NC12CCN(S(=O)(=O)c1ccc(Cl)cc1)CC2 [Compound 44, 8-(4-Chloro-benzenesulfonyl)-2-(2,4-dichloro-phenyl)-1,3,8-triaza-spiro[4.5]dec-1-en-4-one]
22%	O=C1NC(c2ccc(Cl)cc2Cl)=NC12CCN(S(=O)(=O)c1ccccc1C(F)(F)F)CC2 [Compound 45, 2-(2,4-dichloro-phenyl)-8-(2-trifluoromethyl-benzenesulfonyl)-1,3,8-triaza-spiro[4.5]dec-1-en-4-one]
17%	CCCCS(=O)(=O)N1CCC2(CC1)N=C(c1ccc(Cl)cc1Cl)NC2=O [Compound 46, 8-(butane-1-sulfonyl)-2-(2,4-dichloro-phenyl)-1,3,8-triaza-spiro[4.5]dec-1-en-4-one]
45%	O=C1NC(c2ccc(Cl)cc2Cl)=NC12CCN(S(=O)(=O)CCc1cccc3ccccc13)CC2 [Compound 47, 2-(2,4-dichloro-phenyl)-8-(2-naphthalen-1-yl-ethanesulfonyl)-1,3,8-triaza-spiro[4.5]dec-1-en-4-one]
25%	O=C1NC(c2ccc(Cl)cc2Cl)=NC12CCN(S(=O)(=O)c1cccc3cccnc13)CC2 [Compound 48, 2-(2,4-Dichloro-phenyl)-8-(quinoline-8-sulfonyl)-1,3,8-triaza-spiro[4.5]dec-1-en-4-one]

cAMP production activity (%)	Structure (SMILES)
29%	O=C1NC(c2ccc(Cl)cc2Cl)=NC12CCN(S(=O)(=O)c1ccc(F)c(Cl)c1)CC2 [Compound 49, 8-(3-chloro-4-fluoro-benzenesulfonyl)-2-(2,4-dichloro-phenyl)-1,3,8-triaza-spiro[4.5]dec-1-en-4-one]
26%	O=C1NC(c2ccc(Cl)cc2Cl)=NC12CCN(S(=O)(=O)c1cccc(Cl)c1)CC2 [Compound 50, 8-(3-chloro-benzenesulfonyl)-2-(2,4-dichloro-phenyl)-1,3,8-triaza-spiro[4.5]dec-1-en-4-one]
38%	COC(=O)c1ccccc1S(=O)(=O)N1CCC2(CC1)N=C(C1CCCCC1)NC2=O [Compound 51, 2-(2-Cyclohexyl-4-oxo-1,3,8-triaza-spiro[4.5]dec-1-ene-8-sulfonyl)-benzoic acid methyl ester]
23%	Cc1onc(-c2ccccc2)c1S(=O)(=O)N1CCC2(CC1)N=C(C1CCCCC1)NC2=O [Compound 52, 2-cyclohexyl-8-(5-methyl-3-phenyl-isoxazole-4-sulfonyl)-1,3,8-triaza-spiro[4.5]dec-1-en-4-one]
33%	O=C1NC(C2CCCCC2)=NC12CCN(S(=O)(=O)c1csc3ccccc13)CC2 [Compound 53, 8-(benzo[b]thiophene-3-sulfonyl)-2-cyclohexyl-1,3,8-triaza-spiro[4.5]dec-1-en-4-one]
35%	O=C1NC(C2CCCCC2)=NC12CCN(S(=O)(=O)c1cc3ccccc3s1)CC2 [Compound 54, 8-(benzo[b]thiophene-2-sulfonyl)-2-cyclohexyl-1,3,8-triaza-spiro[4.5]dec-1-en-4-one]
55%	O=C1NC(C2CCCCC2)=NC12CCN(S(=O)(=O)c1ccc(Cl)s1)CC2 [Compound 55, 8-(5-chloro-thiophene-2-sulfonyl)-2-cyclohexyl-1,3,8-triaza-spiro[4.5]dec-1-en-4-one]
55%	O=C1NC(C2CCCCC2)=NC12CCN(S(=O)(=O)c1cccs1)CC2 [Compound 56, 2-cyclohexyl-8-(thiophene-2-sulfonyl)-1,3,8-triaza-spiro[4.5]dec-1-en-4-one]
35%	O=C1NC(C2CCCCC2)=NC12CCN(S(=O)(=O)c1cccc3ccccc13)CC2 [Compound 57, 2-cyclohexyl-8-(naphthalene-1-sulfonyl)-1,3,8-triaza-spiro[4.5]dec-1-en-4-one]
39%	Cc1nc(C)c(S(=O)(=O)N2CCC3(CC2)N=C(C2CCCCC2)NC3=O)s1 [Compound 58, 2-cyclohexyl-8-(2,4-dimethyl-thiazole-5-sulfonyl)-1,3,8-triaza-spiro[4.5]dec-1-en-4-one]
56%	Cc1noc(C)c1S(=O)(=O)N1CCC2(CC1)N=C(C1CCCCC1)NC2=O [Compound 59, 2-cyclohexyl-8-(3,5-dimethyl-isoxazole-4-sulfonyl)-1,3,8-triaza-spiro[4.5]dec-1-en-4-one]
34%	O=C1NC(C2CCCCC2)=NC12CCN(S(=O)(=O)c1ccc3c(c1)OCCO3)CC2 [Compound 60, 2-cyclohexyl-8-(2,3-dihydro-benzo[1,4]dioxine-6-sulfonyl)-1,3,8-triaza-spiro[4.5]dec-1-en-4-one]
43%	O=C1NC(C2CCCCC2)=NC12CCN(S(=O)(=O)CCc1cccc3ccccc13)CC2 [Compound 61, 2-cyclohexyl-8-(2-naphthalen-1-yl-ethanesulfonyl)-1,3,8-triaza-spiro[4.5]dec-1-en-4-one]
56%	COC(=O)c1sccc1S(=O)(=O)N1CCC2(CC1)N=C(C1CCCCC1)NC2=O [Compound 62, 3-(2-cyclohexyl-4-oxo-1,3,8-triaza-spiro[4.5]dec-1-ene-8-sulfonyl)-thiophene-2-carboxylic acid methyl ester]
51%	COC(=O)c1cc(C)c(S(=O)(=O)N2CCC3(CC2)N=C(C2CCCCC2)NC3=O)s1 [Compound 63, 5-(2-cyclohexyl-4-oxo-1,3,8-triaza-spiro[4.5]dec-1-ene-8-sulfonyl)-4-methyl-thiophene-2-carboxylic acid methyl ester]
